{"source": "ChEMBL document CHEMBL2434948", "about": "“Discovery, synthesis, and characterization of an orally bioavailable, brain penetrant inhibitor of mixed lineage kinase 3” (J Med Chem, 2013)", "key": {"[1]": {"molecular_target": "Mitogen-activated protein kinase kinase kinase kinase 4 (Homo sapiens) (UniProt O95819)", "sequence (O95819 2-1239 limits assumed)": "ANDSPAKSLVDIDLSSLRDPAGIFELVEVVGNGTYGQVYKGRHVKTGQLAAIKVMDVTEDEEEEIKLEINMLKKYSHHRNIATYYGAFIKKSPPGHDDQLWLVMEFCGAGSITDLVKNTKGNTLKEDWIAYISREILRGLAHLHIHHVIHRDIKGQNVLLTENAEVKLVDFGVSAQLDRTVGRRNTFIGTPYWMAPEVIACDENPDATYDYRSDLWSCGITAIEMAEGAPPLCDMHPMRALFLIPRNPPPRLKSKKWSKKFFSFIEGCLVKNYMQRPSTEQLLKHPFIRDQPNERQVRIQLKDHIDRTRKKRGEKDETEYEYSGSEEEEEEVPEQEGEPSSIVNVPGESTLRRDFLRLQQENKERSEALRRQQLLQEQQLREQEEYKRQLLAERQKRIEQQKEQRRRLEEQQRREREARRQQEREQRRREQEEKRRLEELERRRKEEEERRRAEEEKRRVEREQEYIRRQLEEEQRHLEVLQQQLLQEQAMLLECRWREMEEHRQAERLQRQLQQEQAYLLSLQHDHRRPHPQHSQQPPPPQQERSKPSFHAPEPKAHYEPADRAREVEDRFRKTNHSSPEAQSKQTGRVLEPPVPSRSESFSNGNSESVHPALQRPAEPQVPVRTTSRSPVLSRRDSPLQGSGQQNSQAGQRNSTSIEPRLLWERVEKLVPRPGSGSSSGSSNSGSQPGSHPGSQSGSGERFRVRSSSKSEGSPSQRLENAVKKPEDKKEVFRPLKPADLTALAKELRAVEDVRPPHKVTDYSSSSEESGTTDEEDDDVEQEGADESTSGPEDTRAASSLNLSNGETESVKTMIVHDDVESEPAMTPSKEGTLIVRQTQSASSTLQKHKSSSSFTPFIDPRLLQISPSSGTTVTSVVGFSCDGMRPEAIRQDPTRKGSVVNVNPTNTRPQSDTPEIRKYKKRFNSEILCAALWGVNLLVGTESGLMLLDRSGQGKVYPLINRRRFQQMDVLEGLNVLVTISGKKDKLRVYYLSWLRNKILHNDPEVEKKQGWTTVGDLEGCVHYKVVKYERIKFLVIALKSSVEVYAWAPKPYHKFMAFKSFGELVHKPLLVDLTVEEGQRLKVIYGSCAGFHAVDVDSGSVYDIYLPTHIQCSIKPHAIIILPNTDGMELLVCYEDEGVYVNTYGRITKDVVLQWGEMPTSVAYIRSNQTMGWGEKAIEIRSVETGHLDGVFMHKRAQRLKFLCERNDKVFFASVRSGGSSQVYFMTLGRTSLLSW", "assay": "Binding affinity to human wild type MAP4K4 at 1 uM by qPCR analysis"}, "[2]": {"molecular_target": "Epidermal growth factor receptor (Homo sapiens) (UniProt P00533)", "assay": "Inhibition of human wild type EGFR at 1 uM by qPCR analysis"}, "[3]": {"molecular_target": "Mitogen-activated protein kinase kinase kinase 11 (Mus musculus, UniProt Q80XI6)", "sequence (Q80XI6 whole entry)": "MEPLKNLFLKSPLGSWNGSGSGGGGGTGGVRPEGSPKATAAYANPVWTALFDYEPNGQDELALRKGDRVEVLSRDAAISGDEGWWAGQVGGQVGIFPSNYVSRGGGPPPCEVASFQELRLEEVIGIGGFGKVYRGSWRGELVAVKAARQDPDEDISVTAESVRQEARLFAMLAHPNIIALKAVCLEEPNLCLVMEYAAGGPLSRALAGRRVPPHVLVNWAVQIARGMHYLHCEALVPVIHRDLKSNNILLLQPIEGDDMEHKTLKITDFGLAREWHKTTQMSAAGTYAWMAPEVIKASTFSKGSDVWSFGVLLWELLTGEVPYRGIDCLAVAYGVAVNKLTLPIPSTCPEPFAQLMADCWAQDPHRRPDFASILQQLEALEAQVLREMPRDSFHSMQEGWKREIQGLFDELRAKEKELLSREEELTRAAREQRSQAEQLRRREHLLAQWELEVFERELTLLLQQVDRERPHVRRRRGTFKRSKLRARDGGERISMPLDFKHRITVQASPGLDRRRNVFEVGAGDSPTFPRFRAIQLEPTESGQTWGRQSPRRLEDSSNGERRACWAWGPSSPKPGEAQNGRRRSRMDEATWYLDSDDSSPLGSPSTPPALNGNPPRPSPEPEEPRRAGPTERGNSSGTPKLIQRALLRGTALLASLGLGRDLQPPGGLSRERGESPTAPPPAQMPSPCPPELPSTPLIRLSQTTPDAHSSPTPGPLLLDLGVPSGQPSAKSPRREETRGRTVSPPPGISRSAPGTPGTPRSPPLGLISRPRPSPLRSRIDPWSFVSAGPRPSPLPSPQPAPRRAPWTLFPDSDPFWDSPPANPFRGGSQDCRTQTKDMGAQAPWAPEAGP"}, "[4]": {"molecular_target": "Rho-associated protein kinase 2 (Homo sapiens, UniProt O75116)", "description": "Inhibition of wild type human ROCK2 by high throughput ATP-[33P] radiolabeled assay"}, "[5]": {"molecular_target": "Hepatocyte growth factor receptor (Homo sapiens, UniProt P08581)", "sequence (P08581 whole entry)": "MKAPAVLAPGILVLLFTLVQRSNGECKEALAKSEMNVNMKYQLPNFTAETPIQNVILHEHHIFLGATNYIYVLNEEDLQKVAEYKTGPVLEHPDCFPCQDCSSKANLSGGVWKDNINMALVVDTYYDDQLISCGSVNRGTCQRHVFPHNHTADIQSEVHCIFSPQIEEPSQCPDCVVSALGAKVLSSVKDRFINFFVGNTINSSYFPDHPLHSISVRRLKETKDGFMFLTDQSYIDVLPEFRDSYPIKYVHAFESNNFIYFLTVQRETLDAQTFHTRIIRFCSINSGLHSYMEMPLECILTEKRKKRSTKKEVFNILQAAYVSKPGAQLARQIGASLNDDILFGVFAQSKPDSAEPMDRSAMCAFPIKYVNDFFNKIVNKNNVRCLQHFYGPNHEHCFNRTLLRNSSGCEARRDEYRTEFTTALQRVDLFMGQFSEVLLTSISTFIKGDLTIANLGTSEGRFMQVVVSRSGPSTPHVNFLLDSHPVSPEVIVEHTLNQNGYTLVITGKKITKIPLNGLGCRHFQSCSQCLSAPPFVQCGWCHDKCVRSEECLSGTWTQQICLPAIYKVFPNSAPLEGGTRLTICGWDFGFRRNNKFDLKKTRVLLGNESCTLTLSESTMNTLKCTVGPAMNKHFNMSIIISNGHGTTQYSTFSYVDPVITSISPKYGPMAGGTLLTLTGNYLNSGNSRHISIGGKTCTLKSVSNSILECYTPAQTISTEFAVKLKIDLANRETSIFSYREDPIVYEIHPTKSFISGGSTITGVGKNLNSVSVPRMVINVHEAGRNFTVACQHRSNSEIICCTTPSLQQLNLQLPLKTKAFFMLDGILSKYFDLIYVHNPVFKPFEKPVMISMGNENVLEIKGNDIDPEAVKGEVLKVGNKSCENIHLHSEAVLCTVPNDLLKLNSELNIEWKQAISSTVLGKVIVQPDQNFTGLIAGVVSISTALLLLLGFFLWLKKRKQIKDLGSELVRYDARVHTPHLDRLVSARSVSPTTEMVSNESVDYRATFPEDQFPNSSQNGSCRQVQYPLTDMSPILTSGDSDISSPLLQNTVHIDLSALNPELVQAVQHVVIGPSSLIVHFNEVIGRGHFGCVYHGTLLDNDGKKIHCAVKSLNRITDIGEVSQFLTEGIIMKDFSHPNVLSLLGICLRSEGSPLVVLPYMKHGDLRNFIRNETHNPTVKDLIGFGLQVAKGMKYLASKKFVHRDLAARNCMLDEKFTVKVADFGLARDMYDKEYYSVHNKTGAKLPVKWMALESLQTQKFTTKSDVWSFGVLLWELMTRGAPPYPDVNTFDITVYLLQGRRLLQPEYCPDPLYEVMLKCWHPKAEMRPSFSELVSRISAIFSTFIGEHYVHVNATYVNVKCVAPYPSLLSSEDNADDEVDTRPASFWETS", "description": "Inhibition of wild type human c-MET by high throughput ATP-[33P] radiolabeled assay"}, "Cytochrome P450 2D6": {"molecular_target": "Cytochrome P450 2D6 (Homo sapiens, UniProt P10635)", "sequence (P10635 whole entry)": "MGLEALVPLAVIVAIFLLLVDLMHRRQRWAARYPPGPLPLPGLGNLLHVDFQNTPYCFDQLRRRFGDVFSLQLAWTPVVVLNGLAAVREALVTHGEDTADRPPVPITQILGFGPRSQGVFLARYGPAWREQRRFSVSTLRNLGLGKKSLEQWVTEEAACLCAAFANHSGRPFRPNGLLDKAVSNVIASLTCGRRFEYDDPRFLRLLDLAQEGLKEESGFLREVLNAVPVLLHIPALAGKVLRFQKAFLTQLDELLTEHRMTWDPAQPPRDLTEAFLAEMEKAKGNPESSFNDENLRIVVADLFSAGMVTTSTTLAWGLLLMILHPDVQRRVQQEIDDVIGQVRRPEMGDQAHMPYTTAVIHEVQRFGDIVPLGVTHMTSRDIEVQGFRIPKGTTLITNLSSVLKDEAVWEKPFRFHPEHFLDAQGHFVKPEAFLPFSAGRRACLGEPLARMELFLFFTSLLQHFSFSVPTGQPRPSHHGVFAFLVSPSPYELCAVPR", "description": "Inhibition of CYP2D6 in human liver microsomes assessed as inhibition of diclofenac metabolism by HPLC/MS analysis"}}, "note": "Active and inactive are the calls of the source. No cut-off for these calls is given here."}
{"compound": "CN1CCN(Cc2ccc(-c3cnc4[nH]cc(-c5ccc6[nH]ccc6c5)c4c3)cc2)CC1", "values": [{"measurement": "inhibition", "setting": "[1]", "result": "Active"}, {"measurement": "inhibition", "setting": "[2]", "result": "inactive"}, {"measurement": "IC50", "setting": "[3]", "result": 0.46, "unit": "µM"}, {"measurement": "IC50", "setting": "[4]", "result": 0.111, "unit": "µM"}, {"measurement": "IC50", "setting": "[5]", "result": 0.177, "unit": "µM"}, {"measurement": "IC50", "setting": "Cytochrome P450 2D6", "result": "> 30", "unit": "µM"}]}
